The record followed here is patent publication US6348460B1 (priority 1997, dated 2002).

The term melting point denotes the temperature, or range, at which the solid turns liquid. Turning to `Cc1nnsc1C(=O)NS(C)(=O)=O`, the melting point came to 165 °C.
To `Cc1ccc(N(SN2CCOCC2)C(=O)c2snnc2C)cc1` [b183, 4-methyl-N-(4-methylphenyl)-N-morpholinothio-1,2,3-thiadiazole-5-carboxamide] belongs 60 °C (dec.).
